This note sets out measurements from patent US8822503B2, “2-pyridone compounds” (Taisho Pharmaceutical Co., Ltd, priority 2009, dated 2014).

Usually EC50 stands for the concentration giving half of the maximal effect. A high value points to a less potent agent.

This assay has as its target T1, human liver GK (Homo sapiens, UniProt P35557).
T1 construct: GST (glutathione S-transferase) (N); made in house; host or cells: E. coli
T1 sequence (P35557 1-466 isoform P35557-2): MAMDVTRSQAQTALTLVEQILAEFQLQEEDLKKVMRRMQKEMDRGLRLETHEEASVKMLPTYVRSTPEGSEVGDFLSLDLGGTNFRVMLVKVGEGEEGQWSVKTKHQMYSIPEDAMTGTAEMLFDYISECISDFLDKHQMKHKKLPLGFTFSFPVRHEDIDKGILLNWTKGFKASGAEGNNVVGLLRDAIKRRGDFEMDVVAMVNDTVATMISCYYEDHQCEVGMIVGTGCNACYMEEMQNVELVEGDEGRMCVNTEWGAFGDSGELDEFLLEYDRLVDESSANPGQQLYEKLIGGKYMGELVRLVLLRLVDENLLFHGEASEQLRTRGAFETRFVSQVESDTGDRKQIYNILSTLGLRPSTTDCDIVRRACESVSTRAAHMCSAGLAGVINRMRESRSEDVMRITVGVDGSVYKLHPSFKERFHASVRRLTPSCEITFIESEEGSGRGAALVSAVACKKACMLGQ
The assay can be described thus: GK activation test. The format is biochemical. Particulars: test compound concentration needed to activate 50% of maximum activation ability; 4 mM 14C-labeled glucose, 2 mM ATP, room temperature, 20 minutes. The method, boiled down: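 GST-tagged human liver GK from E. coli (0.24 μg/well) with 4 mM 14C-glucose, 2 mM ATP in Hepes-KOH pH 7.1, KCl, MgCl2, DTT, 1% DMSO, 20 min room temperature. Labeled glucose 6-phosphate captured on anion resin, eluted and counted. EC50 = concentration giving half of maximal activation.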
Turning to `CC(C)c1ccc([C@@H](C[C@H]2CCC(=O)N2)c2ccc(C3CC3)c(=O)[nH]2)cc1` [Example 4-80, 3-Cyclopropyl-6-{(1R)-2-[(2R)-5-oxopyrrolidin-2-yl]-1-[4-(propan-2-yl)phenyl]ethyl}pyridin-2(1H)-one], the EC50 is 10 to 500 nM.
In turn, `O=C1CC[C@H](CC(c2ccc(C(F)(F)F)cc2)c2ccc(C3CC3)c(=O)[nH]2)N1` (single isomer, unassigned) [Example 4-249] yielded an EC50 of 3000 to 10000 nM.
Turning to `COc1cc(F)c(/C(=C\[C@H]2CCC(=O)N2)c2ccc(C3CC3)c(=O)[nH]2)cc1Cl` [Example 4-274, 6-{(E)-1-(5-Chloro-2-fluoro-4-methoxyphenyl)-2-[(2R)-5-oxopyrrolidin-2-yl]ethenyl}-3-cyclopropylpyridin-2(1H)-one], the EC50 fell in the range of 10 to 500 nM.
For `Cc1cc(/C(=C\[C@H]2CCC(=O)N2)c2ccc(Cl)c(=O)[nH]2)ccc1OCCCO` [Example 4-52, 3-Chloro-6-{(E)-1-[4-(3-hydroxypropoxy)-3-methylphenyl]-2-[(2R)-5-oxopyrrolidin-2-yl]ethenyl}pyridin-2(1H)-one], the concentration for a half-maximal effect (EC50) lay in the range of 500 to 3000 nM.
The result for `Cc1ccc(/C(=C/[C@H]2CCC(=O)C2)c2ccc(S(=O)(=O)CCCO)c(Cl)c2)[nH]c1=O` [Example 1-74, 6-{(E)-1-{3-Chloro-4-[(3-hydroxypropyl)sulfonyl]phenyl}-2-[(1S)-3-oxocyclopentyl]ethenyl}-3-methylpyridin-2(1H)-one] reads 500 to 3000 nM; that for `Cc1ccc(/C(=C/C2(CO)CC2)c2ccc(S(=O)(=O)C3CC3)cc2)[nH]c1=O` [Example 1-100, 6-{(E)-1-[4-(Cyclopropylsulfonyl)phenyl]-2-[1-(hydroxymethyl)cyclopropyl]ethenyl}-3-methylpyridin-2(1H)-one], 3000 to 10000 nM.
As for `COc1cc(F)c(C(C[C@H]2CCC(=O)N2)c2ccc(C3CC3)c(=O)[nH]2)cc1Cl` (single isomer, unassigned) [Example 4-346], the figure is 10 to 500 nM; as for `COc1ccc(C(C[C@H]2CCC(=O)N2)c2ccc(C(C)(C)C)cc2)[nH]c1=O` (single isomer, unassigned) [Example 4-244], 500 to 3000 nM; as for `Cc1ccc(/C(=C\[C@H]2CCC(=O)N2)c2ccc(C3CC3)c(=O)[nH]2)cc1C` [Example 4-115, 3-Cyclopropyl-6-{(E)-1-(3,4-dimethylphenyl)-2-[(2R)-5-oxopyrrolidin-2-yl]ethenyl}pyridin-2(1H)-one], 10 to 500 nM.
As for `Cc1ccc(C(C[C@H]2CCC(=O)N2)c2ccc(Cl)c(=O)[nH]2)cc1Cl` (single isomer, unassigned) [Example 4-310], the figure is 500 to 3000 nM; as for `CC(C)(C)c1ccc(/C(=C\[C@H]2CCC(=O)N2)c2ccc(C#N)c(=O)[nH]2)cc1` [Example 4-202, 6-{(E)-1-(4-tert-Butylphenyl)-2-[(2R)-5-oxopyrrolidin-2-yl]ethenyl}-2-oxo-1,2-dihydropyridine-3-carbonitrile], 500 to 3000 nM.
On to `CC(C)c1ccc(C(C[C@H]2CCC(=O)N2)c2ccc(C3CC3)c(=O)[nH]2)cc1Cl` (single isomer, unassigned) [Example 4-320], for which the EC50 is 10 to 500 nM.
The result for `Cc1cc(/C(=C\[C@H]2CCC(=O)N2)c2ccc(C3CC3)c(=O)[nH]2)ccc1Cl` [Example 4-107, 6-{(E)-1-(4-Chloro-3-methylphenyl)-2-[(2R)-5-oxopyrrolidin-2-yl]ethenyl}-3-cyclopropylpyridin-2(1H)-one] reads 10 to 500 nM.
The result for `CS(=O)(=O)c1ccc(/C(=C\[C@H]2CCC(=O)N2)c2ccc(Cl)c(=O)[nH]2)cc1C(F)(F)F` [Example 4-56, 3-Chloro-6-{(E)-1-[4-(methylsulfonyl)-3-(trifluoromethyl)phenyl]-2-[(2R)-5-oxopyrrolidin-2-yl]ethenyl}pyridin-2(1H)-one] reads 500 to 3000 nM.
The result for `CC(C)(C)c1ccc(/C(=C\[C@H]2CCC(=O)N2)c2ccc(Cc3ccccc3)c(=O)[nH]2)cc1` [Example 4-205, 3-Benzyl-6-{(E)-1-(4-tert-butylphenyl)-2-[(2R)-5-oxopyrrolidin-2-yl]ethenyl}pyridin-2(1H)-one] reads 10 to 500 nM; that for `CC(C)(C)c1ccc(/C(=C\Cn2cccnc2=O)c2ccc(Cl)c(=O)[nH]2)cc1` [Example 6-32, 1-[(2E)-3-(4-tert-Butylphenyl)-3-(5-chloro-6-oxo-1,6-dihydropyridin-2-yl)prop-2-en-1-yl]pyrimidin-2(1H)-one], 3000 to 10000 nM.
`CC(C)Oc1ccc(/C(=C\[C@H]2CCC(=O)N2)c2ccc(Cl)c(=O)[nH]2)cc1Cl` [Example 4-32, 3-Chloro-6-{(E)-1-[3-chloro-4-(propan-2-yloxy)phenyl]-2-[(2R)-5-oxopyrrolidin-2-yl]ethenyl}pyridin-2(1H)-one] had a 50% effective concentration (EC50) of 10 to 500 nM.
As for `CC(C)(C)c1ccc(/C(=C\CN2CCOC2=O)c2ccc(Cl)c(=O)[nH]2)cc1` [Example 6-2, 6-[(1E)-1-(4-tert-Butylphenyl)-3-(2-oxo-1,3-oxazolidin-3-yl)prop-1-en-1-yl]-3-chloropyridin-2(1H)-one], the EC50 is 10 to 500 nM.
In turn, `CSc1ccc(/C(=C\C2CCCC2)c2ccc(C)c(=O)[nH]2)cn1` [Example 1-34, 6-{(E)-2-Cyclopentyl-1-[6-(methylsulfanyl)pyridin-3-yl]ethenyl}-3-methylpyridin-2(1H)-one] yielded an EC50 of 500 to 3000 nM.
In turn, `Cn1ccc(=O)n(C/C=C(\c2ccc(C(C)(C)C)cc2)c2ccc(Cl)c(=O)[nH]2)c1=O` [Example 6-31, 3-[(2E)-3-(4-tert-Butylphenyl)-3-(5-chloro-6-oxo-1,6-dihydropyridin-2-yl)prop-2-en-1-yl]-1-methylpyrimidine-2,4(1H, 3H)-dione] displayed an EC50 of 500 to 3000 nM.
In turn, `O=C1CC[C@H](/C=C(\c2ccc(OCCCCO)c(Cl)c2)c2ccc(Cl)c(=O)[nH]2)N1` [Example 4-38, 3-Chloro-6-{(E)-1-[3-chloro-4-(4-hydroxybutoxy)phenyl]-2-[(2R)-5-oxopyrrolidin-2-yl]ethenyl}pyridin-2(1H)-one] displayed an EC50 of 10 to 500 nM.
Compound `O=c1[nH]c(/C(=C/C2CCCC2)c2ccc(S(=O)(=O)CCCO)cc2)ccc1C(F)(F)F` [Example 1-40, 6-[(E)-2-Cyclopentyl-1-{4-[(3-hydroxypropyl)sulfonyl]phenyl}ethenyl]-3-(trifluoromethyl)pyridin-2(1H)-one] returned an EC50 of 500 to 3000 nM.
With `CS(=O)(=O)c1ccc(C/C(=C\C2CCOCC2)c2ccc(Cl)c(=O)[nH]2)cc1` [Example 1-113, 3-Chloro-6-[(1E)-3-[4-(methylsulfonyl)phenyl]-1-(tetrahydro-2H-pyran-4-yl)prop-1-en-2-yl]pyridin-2(1H)-one], the EC50 lay within 3000 to 10000 nM.
In turn, `CN1CCN(C/C=C(\c2ccc(C(C)(C)C)cc2)c2ccc(Cl)c(=O)[nH]2)C1=O` [Example 6-16, 6-[(1E)-1-(4-tert-Butylphenyl)-3-(3-methyl-2-oxoimidazolidin-1-yl)prop-1-en-1-yl]-3-chloropyridin-2(1H)-one] yielded an EC50 of 10 to 500 nM.
As for `Cc1cc(C(C[C@H]2CCC(=O)N2)c2ccc(C3CC3)c(=O)[nH]2)ccc1S(=O)(=O)C1CC1` (single isomer, unassigned) [Example 4-299], the figure is 3000 to 10000 nM; as for `CC(C)c1ccc(/C(=C\[C@H]2CCC(=O)N2)c2ccc(Cl)c(=O)[nH]2)cc1Cl` [Example 4-84, 3-Chloro-6-{(E)-1-[3-chloro-4-(propan-2-yl)phenyl]-2-[(2R)-5-oxopyrrolidin-2-yl]ethenyl}pyridin-2(1H)-one], 10 to 500 nM.
